Converted amounts (≈) assume the structure as drawn.

One compound from US5116949A, “Benzoyl urea compound-albumin complex” (Ishihara Sangyo Kaisha Ltd., priority 1988, dated 1992) can be followed below.

This data set in a line: Solubility in distilled water for injection drug. The format is physicochemical. The settings on record: Compound 3 alone, read-out: Solubility (as Compound 3).

A word on the solubility: it is how much of the substance goes into solution per volume. As for `O=C(NC(=O)c1ccccc1[N+](=O)[O-])Nc1ccc(Oc2ncc(Br)cn2)c(Cl)c1` [Compound 3], the solubility stood at 0.024 µg/mL (≈ 0.0487 µM).
